Test results: patent US20100298141A1, “SUBSTITUTED PYRIDINE N-OXIDE HERBICIDES” (E. I. DU PONT DE NEMOURS AND COMPANY, priority 2007, published 2010)

Key:
morningglory = assay: Test C pre-/postemergence test; format: in vivo, Ipomoea coccinea; details: Preemergence
In short: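 Compounds in a non-phytotoxic solvent with surfactant applied preemergence to seeded pots and, at the same time, postemergence to plants 2–18 cm tall (1- to 4-leaf stage). Paddy tests: pots flooded to 3 cm, compound applied into the water, depth held throughout.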

rice = assay: Test C flooded paddy test; format: in vivo, Oryza sativa; details: Flood
In short: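 Ratings were visual and made relative to untreated controls after 13 to 15 greenhouse days.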

bermudagrass = assay: Test F preemergence test; format: in vivo, Cynodon dactylon; details: scale 0 to 100
In short: (§1)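 Compounds in a non-phytotoxic solvent formulation with surfactant were applied before emergence after sowing, or, for sugarcane, also postemergence. Evaluation was visual, against controls, after 14 to 21 greenhouse days.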

Surinam grass = assay: Test F preemergence test; format: in vivo, Brachiaria decumbens; details: scale 0 to 100
In short: as §1

large crabgrass = assay: Test F preemergence test; format: in vivo, Digitaria sanguinalis; details: scale 0 to 100
In short: as §1

goosegrass = assay: Test F preemergence test; format: in vivo, Eleusine indica; details: scale 0 to 100
In short: as §1

johnsongrass = assay: Test F preemergence test; format: in vivo, Sorghum halepense; details: scale 0 to 100
In short: as §1

kochia = assay: Test F preemergence test; format: in vivo, Kochia scoparia; details: scale 0 to 100
In short: as §1

pitted morningglory = assay: Test F preemergence test; format: in vivo, Ipomoea lacunosa; details: scale 0 to 100
In short: as §1

purple nutsedge = assay: Test F preemergence test; format: in vivo, Cyperus rotundus; details: scale 0 to 100
In short: as §1

common ragweed = assay: Test F preemergence test; format: in vivo, Ambrosia elation; details: scale 0 to 100
In short: as §1

Italian ryegrass = assay: Test F preemergence test; format: in vivo, Lolium multiflorum; details: scale 0 to 100
In short: as §1

broadleaf signalgrass = assay: Test F preemergence test; format: in vivo, Brachiaria platyphylla; details: scale 0 to 100
In short: as §1

Virginia dayflower = assay: Test F preemergence test; format: in vivo, Commelina virginica; details: scale 0 to 100
In short: as §1

annual bluegrass = assay: Test F preemergence test; format: in vivo, Poa annua; details: scale 0 to 100
In short: as §1

naked crabgrass = assay: Test F preemergence test; format: in vivo, Digitaria nuda; details: scale 0 to 100
In short: as §1

[1] = 31 g ai/ha, scale 0 to 100 (0 no effect, 100 complete control)

SMILES: Cc1cc[n+]([O-])c(S(=O)(=O)Cc2c(C(F)(F)F)nn(C)c2Cl)c1 [Compound 19]
- Morningglory plant response rating (morningglory; 62 g ai/ha, scale 0 to 100): 60
- Plant response rating, Morningglory (morningglory; [1]): 0
- Plant response rating, Rice (rice; [1]): 0
- Plant response rating, Rice (rice; 62 g ai/ha, scale 0 to 100, 0 no effect, 100 complete control, 13 to 15 days): 0
- Plant response rating, Rice (rice; 125 g ai/ha, scale 0 to 100, 0 no effect, 100 complete control, 13 to 15 days): 30
- Plant response rating, Rice (rice; 250 g ai/ha, scale 0 to 100 (0 no effect, 100 complete control)): 70
- Bermudagrass plant response rating (bermudagrass; 62 g ai/ha, Preemergence): 60
- Bermudagrass plant response rating (bermudagrass; 125 g ai/ha, preemergence): 95
- Plant response rating, Bermudagrass (bermudagrass; Preemergence, 16 g ai/ha): 0
- Plant response rating, Bermudagrass (bermudagrass; Preemergence, 31 g ai/ha): 40
- Surinam Grass plant response rating (Surinam grass; 62 g ai/ha, Preemergence): 75
- Surinam Grass plant response rating (Surinam grass; 125 g ai/ha, preemergence): 90
- Plant response rating, Surinam Grass (Surinam grass; Preemergence, 31 g ai/ha): 30
- Crabgrass, Large plant response rating (large crabgrass; 62 g ai/ha, Preemergence): 80
- Crabgrass, Large plant response rating (large crabgrass; 125 g ai/ha, preemergence): 95
- Plant response rating, Crabgrass, Large (large crabgrass; Preemergence, 16 g ai/ha): 35
- Plant response rating, Crabgrass, Large (large crabgrass; Preemergence, 31 g ai/ha): 50
- Goosegrass plant response rating (goosegrass; 62 g ai/ha, Preemergence): 90
- Goosegrass plant response rating (goosegrass; 125 g ai/ha, preemergence): 100
- Plant response rating, Goosegrass (goosegrass; Preemergence, 16 g ai/ha): 0
- Plant response rating, Goosegrass (goosegrass; Preemergence, 31 g ai/ha): 75
- Johnsongrass plant response rating (johnsongrass; 62 g ai/ha, Preemergence): 90
- Johnsongrass plant response rating (johnsongrass; 125 g ai/ha, preemergence): 98
- Plant response rating, Johnsongrass (johnsongrass; Preemergence, 16 g ai/ha): 40
- Plant response rating, Johnsongrass (johnsongrass; Preemergence, 31 g ai/ha): 75
- Kochia plant response rating (kochia; 62 g ai/ha, Preemergence): 0
- Kochia plant response rating (kochia; 125 g ai/ha, preemergence): 100
- Plant response rating, Kochia (kochia; Preemergence, 16 g ai/ha): 0
- Plant response rating, Kochia (kochia; Preemergence, 31 g ai/ha): 0
- Morningglory plant response rating (pitted morningglory; 62 g ai/ha, Preemergence): 0
- Morningglory plant response rating (pitted morningglory; 125 g ai/ha, preemergence): 0
- Plant response rating, Morningglory (pitted morningglory; Preemergence, 16 g ai/ha): 0
- Plant response rating, Morningglory (pitted morningglory; Preemergence, 31 g ai/ha): 0
- Purple Nutsedge plant response rating (purple nutsedge; 62 g ai/ha, Preemergence): 60
- Purple Nutsedge plant response rating (purple nutsedge; 125 g ai/ha, preemergence): 70
- Plant response rating, Purple Nutsedge (purple nutsedge; Preemergence, 16 g ai/ha): 0
- Plant response rating, Purple Nutsedge (purple nutsedge; Preemergence, 31 g ai/ha): 0
- Ragweed plant response rating (common ragweed; 62 g ai/ha, Preemergence): 50
- Ragweed plant response rating (common ragweed; 125 g ai/ha, preemergence): 80
- Plant response rating, Ragweed (common ragweed; Preemergence, 16 g ai/ha): 0
- Plant response rating, Ragweed (common ragweed; Preemergence, 31 g ai/ha): 25
- Ryegrass, Italian plant response rating (Italian ryegrass; 62 g ai/ha, Preemergence): 50
- Ryegrass, Italian plant response rating (Italian ryegrass; 125 g ai/ha, preemergence): 65
- Plant response rating, Ryegrass, Italian (Italian ryegrass; Preemergence, 16 g ai/ha): 0
- Plant response rating, Ryegrass, Italian (Italian ryegrass; Preemergence, 31 g ai/ha): 10
- Signalgrass plant response rating (broadleaf signalgrass; 62 g ai/ha, Preemergence): 65
- Signalgrass plant response rating (broadleaf signalgrass; 125 g ai/ha, preemergence): 95
- Plant response rating, Signalgrass (broadleaf signalgrass; Preemergence, 31 g ai/ha): 60
- Dayflower plant response rating (Virginia dayflower; 62 g ai/ha, Preemergence): 30
- Dayflower plant response rating (Virginia dayflower; 125 g ai/ha, preemergence): 90
- Plant response rating, Dayflower (Virginia dayflower; Preemergence, 16 g ai/ha): 0
- Plant response rating, Dayflower (Virginia dayflower; Preemergence, 31 g ai/ha): 0
- Bluegrass plant response rating (annual bluegrass; 62 g ai/ha, Preemergence): 0
- Bluegrass plant response rating (annual bluegrass; 125 g ai/ha, preemergence): 95
- Plant response rating, Bluegrass (annual bluegrass; Preemergence, 16 g ai/ha): 0
- Plant response rating, Bluegrass (annual bluegrass; Preemergence, 31 g ai/ha): 0
- Crabgrass, Naked plant response rating (naked crabgrass; 62 g ai/ha, Preemergence): 100
- Crabgrass, Naked plant response rating (naked crabgrass; 125 g ai/ha, preemergence): 100
- Plant response rating, Crabgrass, Naked (naked crabgrass; Preemergence, 16 g ai/ha): 70
- Plant response rating, Crabgrass, Naked (naked crabgrass; Preemergence, 31 g ai/ha): 70
